Patent publication US8168650B2, “Therapeutic uses of bicyclic ligands of sigma 2 receptor” (priority 2006, dated 2012)
“Also recorded” adds a separate entry of the source. Counter-ions that a name gives are not always drawn. Like-named read-outs stand apart in the source and are kept apart here. Peptide text beside a SMILES is read from it. * marks the point of attachment. Cbz = O=C(OCc1ccccc1)*; CH2F = FC*

Key:
[1] = tested on: Panc-02 cells; experiment: Caspase inhibitors on sigma-2 receptor ligand-induced apoptosis in Panc-02 cells; type: cell-based, mouse
Protocol: (§1) Tumor cells were seeded at a density of approximately 0.2×10^6 cells per well in 12-well plates in 1.0 ml culture medium. Cells were split and pre-incubated at 37° C. in humidified 5% CO2 for more than 24 hours (Panc-02) and 48 hours (CFPAC-1, AsPC-1, Panc-1) to insure uniform growth conditions. Compounds were dissolved in DMSO and added to the culture medium at the concentrations indicated. The final concentration of DMSO in the cell culture medium was less than 1%. The cells were then incubated for 24 hours at 37° C. in humidified 5% CO2. The extent of apoptosis was subsequently measured as previously reported (Guelen, L., et al., Oncogene 2004, 23: 1153-1165). Briefly, staining was performed on trypsin-EDTA treated cultures that had been fixed with 1% paraformaldehyde and 90% methanol. Cell pellets were resuspended in TUNEL reagent (APO-BRDU kit, San Diego, Calif.) or cleaved caspase-3 antibody (Cell Signaling Technology, Inc. Boston, Mass.) and incubated overnight at room temperature (TUNEL) or 4° C. (cleaved caspase-3). After washing, cells were resuspended in fluorescein antibody or 7-AAD buffer and incubated for 1 hour at room temperature. Cell-associated fluorescence was determined using a flow cytometry (FACScan, BD Biosciences) and analyzed with CellQuest software (BD Biosciences).
(§2) At the highest dose tested (10 μM), all sigma-2 receptor ligands induced an additional 10-20% of the cells to undergo apoptosis (FIG. 15A). […] The pan-caspase inhibitor (Z-VAD-fmk) and caspase-3/7 inhibitor (DEVD-CHO) prevented sigma-2 receptor ligand-induced apoptosis in panc-02 cells, while the caspase-1 inhibitor (YVAD-CHO) had no effect (FIG. 15B).

[2] = tested on: EMT-6 cells; experiment: TUNEL assay, enhancement of Dox-induced apoptosis in EMT-6 cells; type: cell-based, mouse; conditions: EMT-6, Dox 30 nM alone
Protocol: In these experiments, a TUNEL assay was used to detect apoptotic cells with damaged DNA strands. […] Furthermore, EMT-6 cells treated with Dox at 30 nM yielded only 10% TUNEL-positive cells. However, when EMT-6 cells were treated with 2 μM WC-II-26 plus 30 nM Dox, the percentage of TUNEL-positive cells rose to 43.3%.

[3] = tested on: EMT-6 cells; experiment: Colony formation assay on Doxorubicin-treated EMT-6 cells; type: cell-based, mouse
Protocol: This Example illustrates colony formation assay on Doxorubicin (“Dox”)-treated EMT-6 cells in the presence or absence of 2 μM WC-II-26. The structures of the sigma ligands used in this and subsequent examples are illustrated in FIG. 5 and FIG. 6.

[4] = tested on: pancreatic cancer cell lines (Panc-02, CFPAC-1, AsPC-1, Panc-1); experiment: Apoptosis in pancreas cancer cell lines (TUNEL / cleaved caspase-3, flow cytometry); type: cell-based, mouse, human
Protocol: as §1, §2

[5] = tested on: EMT-6 cells; conditions: EMT-6, 1 h pre-incubation with inhibitor (100 μM); for effect on cell death / cytotoxic effects induced by the three σ2 selective ligands: MTS assay
Protocol: To determine the effect of blocking the caspase-dependent apoptotic pathway on sigma ligand-induced cell killing, the caspase inhibitors, Z-VAD-FMK or Z-DEVD-FMK (Calbiochem, San Diego, Calif.) were added to the culture medium 1 hour before the sigma ligands, and the MTS assay performed as described above.

[6] = target: T1, sigma-2 receptors (Mus musculus, UniProt Q8VD00); experiment: Saturation binding (Scatchard analysis) of [3H]RHM-1 in Panc-02 tumor allograft membrane homogenates
T1 construct: Membrane homogenates were prepared from ˜400 mg Panc-02 mouse tumor allografts; from tissue; host or cells: Panc-02 mouse pancreatic tumor allografts (membrane homogenates)
T1 sequence (Q8VD00 1-176): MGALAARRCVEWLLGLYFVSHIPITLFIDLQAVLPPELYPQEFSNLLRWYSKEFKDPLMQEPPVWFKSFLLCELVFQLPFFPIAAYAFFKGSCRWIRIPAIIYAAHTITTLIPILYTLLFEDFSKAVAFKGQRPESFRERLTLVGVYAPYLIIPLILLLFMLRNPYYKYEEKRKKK
Protocol: Membrane homogenates were prepared from ˜400 mg Panc-02 mouse tumor allografts, which were removed from tumor bearing mice and frozen on dry ice immediately and stored at −80° C. until used. Before homogenization, the tumor allografts were allowed to thaw slowly on ice. Tissue homogenization was carried out at 4° C. using a Potter-Elvehjem tissue grinder at a concentration of 1 g of tissue/ml of 50 mM Tris-HCl at pH 8.0. The crude membrane homogenate was then transferred to a 50 ml centrifuge tube and resuspended to a concentration of 200 mg of tissue/ml of 50 mM Tris-HCl. Additional homogenization was accomplished using an Ultra-Turrax T8 polython homogenizer (IKA Works, Inc, Wilmington, N.C.). The final homogenate was then centrifuged for 10 min at 1000 g, the pellet discarded and the supernatant mixed by vortexing and stored at −80° C. until used. The protein concentration of the suspension was determined (DC protein assay, Bio-Rad, Hercules, Calif.) and averaged ˜10 mg of protein/ml of stock solution. […] The concentrations of the radioligand ranged from 0.1-18 nM. […] Each filter was washed with 200 μl of ice-cold wash buffer for a total of three washes. […] The equilibrium dissociation constant (Kd) and maximum number of binding sites (BBmax) were determined by a linear regression analysis of the transformed data using the method of Scatchard.
Data from saturation radioligand binding studies was transformed to determine the Hill coefficient, nH, defined as: […]
In these experiments, direct saturation binding studies were carried out using [^3H]RHM-1 with membrane homogenates of PancO2 tumor allografts.

[7] = tested on: CFPAC-1; experiment: Apoptosis in CFPAC-1 cells; type: cell-based, human; conditions: CFPAC-1, highest dose tested
Protocol: as §1, with “Biosciences). […]” for “Biosciences).”

[8] = membrane homogenates of Panc-02 tumor allografts

With `COc1ccc(C)cc1NC(=O)OC1CC2CCCC(C1)N2CCCCCCNS(=O)(=O)c1cccc2c(N(C)C)cccc12` (stereo not drawn) (as salt: oxalate) [Compound 9, N-(9-(6-(5-Dimethylamino-1-naphthalenesulfonamido))hexyl)-9-azabicyclo[3.3.1]-nonan-3α-yl-N-(2-methoxy-5-methylphenyl)carbamate oxalate] the melting point was 162 to 163 °C.
For `CC(=O)N[C@@H](CC(=O)O)C(=O)N[C@@H](CCC(=O)O)C(=O)N[C@H](C(=O)N[C@H](C=O)CC(=O)O)C(C)C` [DEVD-CHO], the “effect on sigma-2 receptor ligand-induced apoptosis” value [1] was “prevented”.
For `COc1cccc2c1C(=O)c1c(O)c3c(c(O)c1C2=O)C[C@@](O)(C(=O)CO)C[C@@H]3O[C@H]1C[C@H](N)[C@H](O)[C@H](C)O1` [Dox, Doxorubicin, reference compound], the TUNEL-positive cells [2] was 10%, the “number of colonies formed compared to control cells” value ([3]; EMT-6, 10, 20, and 30 nM of Dox alone) was “not changed significantly” and the “decrease in colony forming efficiency” value ([3]; EMT-6, Dox 40 nM alone) was “about 25%”.
With `O=C(CCCN1CCC(O)(c2ccc(Cl)cc2)CC1)c1ccc(F)cc1` [Haloperidol, reference compound] the “apoptosis in all pancreas cancer cell lines tested” value ([4]; 24 hours incubation) was “dose-dependent apoptosis”.
For `CC(=O)N[C@@H](Cc1ccc(O)cc1)C(=O)N[C@H](C(=O)N[C@@H](C)C(=O)N[C@H](C=O)CC(=O)O)C(C)C` [YVAD-CHO], the “effect on sigma-2 receptor ligand-induced apoptosis” value [1] was “no effect”.
In the case of `COC(=O)CC[C@H](NC(=O)[C@H](CC(=O)OC)NC(=O)OCc1ccccc1)C(=O)N[C@H](C(=O)N[C@@H](CC(=O)OC)C(=O)CF)C(C)C` [Z-DEVD-FMK], the “effect on cell death / cytotoxic effects induced by the three σ2 selective ligands” value [5] is reported as “partially blocked; also recorded: partially, but not completely, blocked”.
With `COC(=O)C[C@H](NC(=O)[C@H](C)NC(=O)[C@@H](NC(=O)OCc1ccccc1)C(C)C)C(=O)CF` [Z-VAD-FMK] (Cbz-Val-Ala-Asp(OMe)-CH2F) the “effect on sigma-2 receptor ligand-induced apoptosis” value [1] was “prevented”, the “effect on DNA fragmentation after treatment with the three σ2 selective ligands” value [5] was “partially blocked” and the “effect on cell death / cytotoxic effects induced by the three σ2 selective ligands” value [5] was “partially, but not completely, blocked”. For the same compound, the “effect on cell death / cytotoxic effects induced by the three σ2 selective ligands” value ([5]; listed as Z-VADFMK) was “partially blocked”.
For `COc1cc2c(cc1OC)CN(CCCCNC(=O)c1cc(C)ccc1OC)CC2` [[3H]RHM-1], the “Bmax (maximum number of binding sites)” value [6, 8] was 1250 fmol/mg protein, the Kd [6, 8] was 4.88 nM and the “Hill coefficient nH (mean)” value ([6]; saturation binding, Panc-02 tumor allografts) was “close to unity”.
With `CC(C)=CCN1CCC2(C)c3cc(O)ccc3CC1C2C` (centres unmarked) [pentazocine, reference compound] the increase in apoptosis [7] was 8-10% and the “toxicity to pancreas cancer cell lines” value ([4]; all cell lines tested with the exception of CFPAC-1) was “minimal toxicity”.
